Test results reported in PMC5218480 (PLoS ONE, 2017).

Tested on: MV-4-11 cells
Assay: Gene expression microarray analysis (Affymetrix PrimeView) and GSEA
Assay type: cell-based, human
Parameters: RFU PODN (11730768_x_at) / Fold change /veh PODN (11730768_x_at) / RFU LINC00158 (11744669_a_at) / Fold change /veh LINC00158 (11744669_a_at) / RFU DUSP10 (11751237_a_at) / Fold change /veh DUSP10 (11751237_a_at) / RFU ID3 (11757404_x_at) / Fold change /veh ID3 (11757404_x_at) / RFU PLEKHG5 (11737974_s_at) / Fold change /veh PLEKHG5 (11737974_s_at) / RFU LRRC4B (11730491_at) / Fold change /veh LRRC4B (11730491_at) / RFU GIMAP4 (11747438_a_at) / Fold change /veh GIMAP4 (11747438_a_at) / RFU KRT8 (11758183_x_at) / Fold change /veh KRT8 (11758183_x_at) / RFU CNN1 (11734310_a_at) / Fold change /veh CNN1 (11734310_a_at) / RFU VPS37D (11726825_at) / Fold change /veh VPS37D (11726825_at) / RFU C10orf10 (11716522_x_at) / Fold change /veh C10orf10 (11716522_x_at) / RFU KIR2DL2 /// KIR2DL4 /// KIR2DL5A /// KIR2DL5B /// KIR2DS1 /// KIR2DS2 /// KIR2DS3 /// KIR2DS4 /// KIR3DL3 /// KIR3DL3 /// KIR3DS1 (11738374_at) / Fold change /veh KIR2DL2 /// KIR2DL4 /// KIR2DL5A /// KIR2DL5B /// KIR2DS1 /// KIR2DS2 /// KIR2DS3 /// KIR2DS4 /// KIR3DL3 /// KIR3DL3 /// KIR3DS1 (11738374_at) / RFU C1QL1 (11718748_at) / Fold change /veh C1QL1 (11718748_at) / RFU TMPRSS4 (11747572_a_at) / Fold change /veh TMPRSS4 (11747572_a_at) / RFU HAMP (11756126_x_at) / Fold change /veh HAMP (11756126_x_at) / RFU RNFT2 (11725882_a_at) / Fold change /veh RNFT2 (11725882_a_at) / RFU NR4A2 (11747474_a_at) / Fold change /veh NR4A2 (11747474_a_at) / RFU ABCC12 (11746883_a_at) / Fold change /veh ABCC12 (11746883_a_at) / RFU TMEM136 (11760407_x_at) / Fold change /veh TMEM136 (11760407_x_at) / RFU CLDN22 /// WWC2 (11732394_at) / Fold change /veh CLDN22 /// WWC2 (11732394_at) / RFU HLA-DPB1 (11760878_x_at) / Fold change /veh HLA-DPB1 (11760878_x_at) / RFU SPINT1 (11716480_a_at) / Fold change /veh SPINT1 (11716480_a_at) / RFU GAP43 (11754022_s_at) / Fold change /veh GAP43 (11754022_s_at) / RFU A4GNT (11735810_at) / Fold change /veh A4GNT (11735810_at) / RFU PRB3 (11715151_x_at) / Fold change /veh PRB3 (11715151_x_at) / RFU TUBB4B (11761932_at) / Fold change /veh TUBB4B (11761932_at) / RFU CAPN14 (11732068_a_at) / Fold change /veh CAPN14 (11732068_a_at) / RFU TMCC2 (11721928_a_at) / Fold change /veh TMCC2 (11721928_a_at) / RFU IRGQ (11745062_a_at) / Fold change /veh IRGQ (11745062_a_at) / RFU FAM174B (11720279_a_at) / Fold change /veh FAM174B (11720279_a_at) / RFU TMPRSS4 (11748680_a_at) / Fold change /veh TMPRSS4 (11748680_a_at) / RFU FAM212B (11763350_a_at) / Fold change /veh FAM212B (11763350_a_at) / RFU PLEKHG5 (11743358_a_at) / Fold change /veh PLEKHG5 (11743358_a_at) / RFU ZSCAN30 (11745921_a_at) / Fold change /veh ZSCAN30 (11745921_a_at) / RFU CMKLR1 (11741424_a_at) / Fold change /veh CMKLR1 (11741424_a_at) / RFU LOC101060620 /// MAPK8IP1 (11723275_at) / Fold change /veh LOC101060620 /// MAPK8IP1 (11723275_at) / RFU SPTSSB (11747773_x_at) / Fold change /veh SPTSSB (11747773_x_at) / RFU PRSS12 (11739890_at) / Fold change /veh PRSS12 (11739890_at) / RFU BIN1 (11741810_x_at) / Fold change /veh BIN1 (11741810_x_at) / RFU WNT11 (11732464_a_at) / Fold change /veh WNT11 (11732464_a_at) / RFU C10orf10 (11716521_a_at) / Fold change /veh C10orf10 (11716521_a_at) / RFU C5orf56 (11738089_at) / Fold change /veh C5orf56 (11738089_at) / RFU CYB561 (11721691_x_at) / Fold change /veh CYB561 (11721691_x_at) / RFU ANKRD19P (11752326_a_at) / Fold change /veh ANKRD19P (11752326_a_at) / RFU OR2T12 /// OR2T33 /// OR2T8 (11738714_s_at) / Fold change /veh OR2T12 /// OR2T33 /// OR2T8 (11738714_s_at) / RFU VCAN (11748164_a_at) / Fold change /veh VCAN (11748164_a_at) / RFU JSRP1 (11732532_at) / Fold change /veh JSRP1 (11732532_at) / RFU KRTAP10-11 (11738290_x_at) / Fold change /veh KRTAP10-11 (11738290_x_at) / RFU MYO3A (11730013_a_at) / Fold change /veh MYO3A (11730013_a_at) / RFU EBF3 (11725865_a_at) / Fold change /veh EBF3 (11725865_a_at) / RFU CAMK2N1 (11719241_x_at) / Fold change /veh CAMK2N1 (11719241_x_at) / RFU C5orf56 (11738088_a_at) / Fold change /veh C5orf56 (11738088_a_at) / RFU OLFML3 (11715873_a_at) / Fold change /veh OLFML3 (11715873_a_at) / RFU LOC100653217 /// NTM (11731650_a_at) / Fold change /veh LOC100653217 /// NTM (11731650_a_at) / RFU MAPK11 (11762145_a_at) / Fold change /veh MAPK11 (11762145_a_at) / RFU FIZ1 (11724087_x_at) / Fold change /veh FIZ1 (11724087_x_at) / RFU OASL (11726364_x_at) / Fold change /veh OASL (11726364_x_at) / RFU SOX15 (11748057_x_at) / Fold change /veh SOX15 (11748057_x_at) / RFU CD79A (11719716_a_at) / Fold change /veh CD79A (11719716_a_at) / RFU HIST1H1D (11736915_at) / Fold change /veh HIST1H1D (11736915_at) / RFU CASKIN2 (11723855_a_at) / Fold change /veh CASKIN2 (11723855_a_at) / RFU LOC730098 (11760151_x_at) / Fold change /veh LOC730098 (11760151_x_at) / RFU OR4N2 (11742367_at) / Fold change /veh OR4N2 (11742367_at) / RFU PRRT2 (11749266_a_at) / Fold change /veh PRRT2 (11749266_a_at) / RFU SNX32 (11753110_a_at) / Fold change /veh SNX32 (11753110_a_at) / RFU CDHR5 (11726645_a_at) / Fold change /veh CDHR5 (11726645_a_at) / RFU RCAN1 (11760418_a_at) / Fold change /veh RCAN1 (11760418_a_at) / RFU FAM167A (11723789_a_at) / Fold change /veh FAM167A (11723789_a_at) / RFU FAM26E (11764081_at) / Fold change /veh FAM26E (11764081_at) / RFU ISYNA1 (11749810_s_at) / Fold change /veh ISYNA1 (11749810_s_at) / RFU ACY1 (11761880_at) / Fold change /veh ACY1 (11761880_at) / RFU 11764098_at / Fold change /veh 11764098_at / RFU SAMD14 (11745864_x_at) / Fold change /veh SAMD14 (11745864_x_at) / RFU NPB (11741838_a_at) / Fold change /veh NPB (11741838_a_at) / RFU TMPRSS6 (11731388_a_at) / Fold change /veh TMPRSS6 (11731388_a_at) / RFU KRTAP10-2 (11738614_at) / Fold change /veh KRTAP10-2 (11738614_at) / RFU ARHGAP8 /// PRR5-ARHGAP8 (11727945_x_at) / Fold change /veh ARHGAP8 /// PRR5-ARHGAP8 (11727945_x_at) / RFU KRTAP5-7 /// NADSYN1 (11734609_at) / Fold change /veh KRTAP5-7 /// NADSYN1 (11734609_at) / RFU RASL12 (11751679_a_at) / Fold change /veh RASL12 (11751679_a_at) / RFU CDKN2B (11736163_a_at) / Fold change /veh CDKN2B (11736163_a_at) / RFU PRF1 (11729649_at) / Fold change /veh PRF1 (11729649_at) / RFU, ZNF638 /// ZNF638-IT1 / Fold change vs veh, ZNF638 /// ZNF638-IT1 / RFU, PANK3 / Fold change vs veh, PANK3 / RFU, SH3YL1 / Fold change vs veh, SH3YL1 / RFU, ZEB2 / Fold change vs veh, ZEB2 / RFU, NRIP1 / Fold change vs veh, NRIP1 / RFU, PTTG1IP / Fold change vs veh, PTTG1IP / RFU, CAPN2 / Fold change vs veh, CAPN2 / RFU, MED14 / Fold change vs veh, MED14 / RFU, SNORA58 / Fold change vs veh, SNORA58 / RFU, C1orf63 / Fold change vs veh, C1orf63 / RFU, LRRFIP1 / Fold change vs veh, LRRFIP1 / RFU, NDUFAF7 / Fold change vs veh, NDUFAF7 / RFU, SLC12A2 / Fold change vs veh, SLC12A2 / RFU, IBTK / Fold change vs veh, IBTK / RFU, ESF1 / Fold change vs veh, ESF1 / Fold change vs veh, TMEM50B / RFU, TAOK1 / Fold change vs veh, TAOK1 / RFU, ACBD3 / Fold change vs veh, ACBD3 / RFU, TMA16 / Fold change vs veh, TMA16 / RFU, RWDD3 / Fold change vs veh, RWDD3 / RFU, BCAT1 / Fold change vs veh, BCAT1 / RFU, EDEM3 / Fold change vs veh, EDEM3 / RFU, TMEM33 / Fold change vs veh, TMEM33 / RFU, WDR75 / Fold change vs veh, WDR75 / RFU, AHCTF1 / Fold change vs veh, AHCTF1 / RFU, TFRC / Fold change vs veh, TFRC / RFU, ZDHHC17 / Fold change vs veh, ZDHHC17 / RFU, NOM1 / Fold change vs veh, NOM1 / RFU, ARL8B / Fold change vs veh, ARL8B / RFU, ZBTB11 / Fold change vs veh, ZBTB11 / RFU, TAMM41 / Fold change vs veh, TAMM41 / RFU, KIAA1704 /// LOC100996395 / Fold change vs veh, KIAA1704 /// LOC100996395 / RFU, ING1 / Fold change vs veh, ING1 / RFU, TRMT61B / Fold change vs veh, TRMT61B / RFU, FUBP3 / Fold change vs veh, FUBP3 / RFU, TP53 / Fold change vs veh, TP53 / RFU, TNKS2 / Fold change vs veh, TNKS2 / RFU, ZFP14 / Fold change vs veh, ZFP14 / RFU, ACTR2 / Fold change vs veh, ACTR2 / RFU, PPP3R1 / Fold change vs veh, PPP3R1 / RFU, PIK3R1 / Fold change vs veh, PIK3R1 / RFU, HNRNPA1 / Fold change vs veh, HNRNPA1 / RFU, RNF170 / Fold change vs veh, RNF170 / RFU, ZNF28 / Fold change vs veh, ZNF28 / RFU, RNGTT / Fold change vs veh, RNGTT / RFU, OGT / Fold change vs veh, OGT / RFU, BRD1 / Fold change vs veh, BRD1 / RFU, MARS / Fold change vs veh, MARS / RFU, ZNF655 / Fold change vs veh, ZNF655 / RFU, FAHD1 / Fold change vs veh, FAHD1 / RFU, BDP1 / Fold change vs veh, BDP1 / RFU, LRRCC1 / Fold change vs veh, LRRCC1 / RFU, ARID1A / Fold change vs veh, ARID1A / RFU, ZNF146 / Fold change vs veh, ZNF146 / RFU, ZNF330 / Fold change vs veh, ZNF330 / RFU, GPN3 / Fold change vs veh, GPN3 / RFU, C9orf123 / Fold change vs veh, C9orf123 / RFU, N4BP2L2 / Fold change vs veh, N4BP2L2 / RFU, ARFIP1 / Fold change vs veh, ARFIP1 / RFU, FAM179B / Fold change vs veh, FAM179B / RFU, BCL10 / Fold change vs veh, BCL10 / RFU, UHRF1BP1L / Fold change vs veh, UHRF1BP1L / RFU, BET1 / Fold change vs veh, BET1 / RFU, CNOT2 / Fold change vs veh, CNOT2 / RFU, ZNF268 / Fold change vs veh, ZNF268 / Fold change vs veh, ZNF507 / RFU, DGCR2 / Fold change vs veh, DGCR2 / RFU, WDSUB1 / Fold change vs veh, WDSUB1 / Fold change vs veh, HSP90B1 /// MIR3652 / RFU, ADSS / Fold change vs veh, ADSS / RFU, GK / Fold change vs veh, GK / RFU, ZNF148 / Fold change vs veh, ZNF148 / RFU, TAF9 / Fold change vs veh, TAF9 / RFU, SLC1A5 / Fold change vs veh, SLC1A5 / RFU, SLMO2 / Fold change vs veh, SLMO2 / RFU, ABCC4 / Fold change vs veh, ABCC4 / RFU, LOC101060439 /// RAP1B / Fold change vs veh, LOC101060439 /// RAP1B / RFU, RFX7 / Fold change vs veh, RFX7 / RFU, GTPBP10 / Fold change vs veh, GTPBP10 / RFU, CNEP1R1 / Fold change vs veh, CNEP1R1 / RFU, BIVM-ERCC5 /// ERCC5 / Fold change vs veh, BIVM-ERCC5 /// ERCC5 / RFU, ILF3 / Fold change vs veh, ILF3 / RFU 11762660_at / Fold change /veh 11762660_at / RFU VCAN (11757783_s_at) / Fold change /veh VCAN (11757783_s_at) / RFU DDX43 (11728927_at) / Fold change /veh DDX43 (11728927_at) / RFU KRT8 (11758188_x_at) / Fold change /veh KRT8 (11758188_x_at) / RFU NKD1 (11759106_at) / Fold change /veh NKD1 (11759106_at) / RFU SRD5A1 (11742802_a_at) / Fold change /veh SRD5A1 (11742802_a_at) / RFU TPSAB1 /// TPSB2 (11721975_s_at) / Fold change /veh TPSAB1 /// TPSB2 (11721975_s_at) / RFU GSTM3 (11746129_a_at) / Fold change /veh GSTM3 (11746129_a_at) / RFU IL23R (11737362_x_at) / Fold change /veh IL23R (11737362_x_at) / RFU TMEM51 (11727254_a_at) / Fold change /veh TMEM51 (11727254_a_at) / RFU PIWIL2 (11732686_x_at) / Fold change /veh PIWIL2 (11732686_x_at) / RFU ORM1 (11744905_x_at) / Fold change /veh ORM1 (11744905_x_at) / RFU CCDC152 (11743942_at) / Fold change /veh CCDC152 (11743942_at) / RFU ECM1 (11717891_a_at) / Fold change /veh ECM1 (11717891_a_at) / RFU IL23R (11748794_a_at) / Fold change /veh IL23R (11748794_a_at) / RFU TNFAIP8L3 (11732012_x_at) / Fold change /veh TNFAIP8L3 (11732012_x_at) / RFU MBOAT4 (11741988_at) / Fold change /veh MBOAT4 (11741988_at) / RFU 11764193_at / Fold change /veh 11764193_at / RFU TMEM53 (11763286_at) / Fold change /veh TMEM53 (11763286_at) / RFU MAGEB2 (11727129_at) / Fold change /veh MAGEB2 (11727129_at) / RFU TMEM200A (11744735_a_at) / Fold change /veh TMEM200A (11744735_a_at) / RFU CCDC152 (11751479_a_at) / Fold change /veh CCDC152 (11751479_a_at) / RFU FAM211A (11726209_a_at) / Fold change /veh FAM211A (11726209_a_at) / RFU RGS16 (11746705_a_at) / Fold change /veh RGS16 (11746705_a_at) / RFU VCAN (11755009_s_at) / Fold change /veh VCAN (11755009_s_at) / RFU RHOB (11743442_s_at) / Fold change /veh RHOB (11743442_s_at) / RFU RGS16 (11720943_a_at) / Fold change /veh RGS16 (11720943_a_at) / RFU RGS16 (11720944_at) / Fold change /veh RGS16 (11720944_at) / RFU, VPS4B / Fold change vs veh, VPS4B / RFU, CREB1 / Fold change vs veh, CREB1 / RFU, DNAJC13 / Fold change vs veh, DNAJC13 / RFU, GNAQ / Fold change vs veh, GNAQ / RFU, CDK5R1 / Fold change vs veh, CDK5R1 / RFU, ZRANB3 / Fold change vs veh, ZRANB3 / RFU, CUL4A / Fold change vs veh, CUL4A / RFU, CCNY / Fold change vs veh, CCNY / RFU, UFL1 / Fold change vs veh, UFL1 / RFU, COG3 / Fold change vs veh, COG3 / RFU, DIAPH2 / Fold change vs veh, DIAPH2 / RFU, SKA2 / Fold change vs veh, SKA2 / RFU, AFF3 / Fold change vs veh, AFF3 / RFU, LMF1 / Fold change vs veh, LMF1 / RFU, IPO11 / Fold change vs veh, IPO11 / RFU, DFFB / Fold change vs veh, DFFB / RFU, FOXP1 / Fold change vs veh, FOXP1 / RFU, CARD8 / Fold change vs veh, CARD8 / RFU, STRN3 / Fold change vs veh, STRN3 / RFU, ADK / Fold change vs veh, ADK / RFU, RASSF2 / Fold change vs veh, RASSF2 / RFU, WIPF1 / Fold change vs veh, WIPF1 / RFU, LARP1B / Fold change vs veh, LARP1B / RFU, RASA1 / Fold change vs veh, RASA1 / RFU, RB1 / Fold change vs veh, RB1 / RFU, PPFIA1 / Fold change vs veh, PPFIA1 / RFU, MAT2A / Fold change vs veh, MAT2A / RFU, CCT5 / Fold change vs veh, CCT5 / RFU, WDR92 / Fold change vs veh, WDR92 / RFU, CUX1 / Fold change vs veh, CUX1 / RFU, TTC7A / Fold change vs veh, TTC7A / RFU, TMEM135 / Fold change vs veh, TMEM135 / RFU, DEPTOR / Fold change vs veh, DEPTOR / RFU, CPM / Fold change vs veh, CPM / RFU, DNAJB6 / Fold change vs veh, DNAJB6 / RFU, CACNA2D3 / Fold change vs veh, CACNA2D3 / RFU, DTX4 / Fold change vs veh, DTX4 / RFU, TFCP2 / Fold change vs veh, TFCP2 / RFU, GMCL1 /// GMCL1P1 / Fold change vs veh, GMCL1 /// GMCL1P1 / RFU, AEBP2 / Fold change vs veh, AEBP2 / RFU, SNHG1 /// SNORD22 /// SNORD25 /// SNORD26 /// SNORD27 /// SNORD28 /// SNORD29 /// SNORD31 / Fold change vs veh, SNHG1 /// SNORD22 /// SNORD25 /// SNORD26 /// SNORD27 /// SNORD28 /// SNORD29 /// SNORD31 / Fold change (Aza/veh), C12orf56 (ProbeSet 11735607_a_at) / Fold change (ACY-1035/veh), C12orf56 (ProbeSet 11735607_a_at) / Fold change (Aza/veh), FGFR1OP (ProbeSet 11751329_s_at) / Fold change (ACY-1035/veh), FGFR1OP (ProbeSet 11751329_s_at) / Fold change (Aza/veh), VPS36 (ProbeSet 11739960_a_at) / Fold change (ACY-1035/veh), VPS36 (ProbeSet 11739960_a_at) / RFU SYPL1 (11715823_x_at) / Fold change /veh SYPL1 (11715823_x_at) / RFU IGFBP7 (11715501_s_at) / Fold change /veh IGFBP7 (11715501_s_at) / RFU REEP3 (11722064_at) / Fold change /veh REEP3 (11722064_at) / RFU IGLL1 (11728026_x_at) / Fold change /veh IGLL1 (11728026_x_at): dose or concentration left out as unconfirmed
Conditions: ProbeSet 11725100_s_at; LIST B

In the case of `Nc1ccc(-c2cccs2)cc1NC(=O)c1ccc2c(c1)cc(C1CC1)n2CCN1CCOCC1` [ACY-1035], the “RFU, ESF1” value was 97.73 RFU.
